# ChEMBL document CHEMBL1137142, “Structure-activity relationships of a novel series of melanin-concentrating hormone (MCH) receptor antagonists” (Bioorg Med Chem Lett, 2004)
# Key:
# [1] = biological target: T1, Melanin-concentrating hormone receptor 1 (Homo sapiens, UniProt Q99705); assay: (§1) Inhibitory activity against Melanin-concentrating hormone receptor 1; details: concentration not given here
# [2] = as §1; set-up: species or system Homo sapiens
# [3] = biological target: T2, 5-hydroxytryptamine receptor 2B (Homo sapiens, UniProt P41595); assay: Inhibitory activity against human 5-HT2B receptor at 1 uM concentration
# [4] = biological target: T3, 5-hydroxytryptamine receptor 2C (Homo sapiens) (UniProt P28335); assay: Inhibitory activity against human 5-HT2C receptor at 1 uM concentration
# T3 sequence (whole entry): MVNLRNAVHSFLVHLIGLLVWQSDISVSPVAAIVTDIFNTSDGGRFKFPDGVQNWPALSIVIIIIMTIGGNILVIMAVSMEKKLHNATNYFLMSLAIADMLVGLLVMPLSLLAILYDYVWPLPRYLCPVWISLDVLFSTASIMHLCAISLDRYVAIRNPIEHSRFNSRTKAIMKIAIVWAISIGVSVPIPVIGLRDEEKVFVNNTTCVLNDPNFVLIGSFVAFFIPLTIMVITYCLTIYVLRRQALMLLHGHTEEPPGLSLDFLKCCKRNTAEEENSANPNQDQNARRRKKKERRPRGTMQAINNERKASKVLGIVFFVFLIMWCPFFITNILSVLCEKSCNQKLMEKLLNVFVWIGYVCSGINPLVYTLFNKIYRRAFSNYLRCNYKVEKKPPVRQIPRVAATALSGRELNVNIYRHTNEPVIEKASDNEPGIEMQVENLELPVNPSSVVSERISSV
# [5] = biological target: T4, 5-hydroxytryptamine receptor 2A (Homo sapiens, UniProt P28223); assay: Inhibitory activity against human 5-HT2A receptor at 1 uM concentration
# [6] = biological target: T5, Alpha-1A adrenergic receptor (Homo sapiens) (UniProt P35348); assay: Inhibitory activity against human adrenergic alpha-1A receptor at 1 uM concentration
# T5 sequence (whole entry): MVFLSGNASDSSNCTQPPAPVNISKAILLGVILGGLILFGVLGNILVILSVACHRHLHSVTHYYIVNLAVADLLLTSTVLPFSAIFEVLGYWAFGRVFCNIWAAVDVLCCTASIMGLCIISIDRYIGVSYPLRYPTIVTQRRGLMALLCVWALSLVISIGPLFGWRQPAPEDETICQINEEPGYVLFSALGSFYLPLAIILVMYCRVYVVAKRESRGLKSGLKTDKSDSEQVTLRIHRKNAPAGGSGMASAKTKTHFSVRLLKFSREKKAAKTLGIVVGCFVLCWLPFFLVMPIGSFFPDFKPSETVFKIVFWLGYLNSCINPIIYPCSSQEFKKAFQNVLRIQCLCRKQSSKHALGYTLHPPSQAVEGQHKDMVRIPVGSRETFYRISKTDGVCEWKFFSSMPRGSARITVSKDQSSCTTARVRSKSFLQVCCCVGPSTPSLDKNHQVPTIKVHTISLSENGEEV
# [7] = biological target: D(2) dopamine receptor (Homo sapiens) (UniProt P14416); assay: Inhibitory activity against human D2 receptor at 1 uM concentration
# Homo sapiens = organism: Homo sapiens; assay: Selectivity ratio for MCH-1R versus 5-HT2B receptor
# [8] = biological target: T1, Melanin-concentrating hormone receptor 1; assay: Tested for MCH-1 induced [Ca2+] release from CHO cells transfected with human MCH-1R; assay type: cell-based
# [9] = biological target: T1, Melanin-concentrating hormone receptor 1; assay: Inhibitory activity against Melanin-concentrating hormone receptor 1 at 1 uM
# [10] = biological target: T4, 5-hydroxytryptamine receptor 2A; assay: Inhibitory activity against human 5-HT2A receptor
# [11] = biological target: T2, 5-hydroxytryptamine receptor 2B; assay: Inhibitory activity against human 5-HT2B receptor
# [12] = biological target: T6, 5-hydroxytryptamine receptor 2C (Homo sapiens, UniProt P28335); assay: Inhibitory activity against human 5-HT2C receptor
# T6 sequence (P28335 whole entry): T3 sequence (whole entry)
# [13] = biological target: T5, Alpha-1A adrenergic receptor (Homo sapiens); assay: Inhibitory activity against human adrenergic alpha-1A receptor at 10 uM
# [14] = biological target: D(2) dopamine receptor (Homo sapiens) (UniProt P14416); assay: Inhibitory activity against human D2 receptor at 10 uM
# [15] = biological target: T5, Alpha-1A adrenergic receptor (Homo sapiens); assay: Inhibitory activity against human adrenergic alpha-1A receptor at 10 uM concentration
# [16] = biological target: D(2) dopamine receptor (Homo sapiens) (UniProt P14416); assay: Inhibitory activity against human D2 receptor at 10 uM concentration
# T2 sequence (P41595 whole entry): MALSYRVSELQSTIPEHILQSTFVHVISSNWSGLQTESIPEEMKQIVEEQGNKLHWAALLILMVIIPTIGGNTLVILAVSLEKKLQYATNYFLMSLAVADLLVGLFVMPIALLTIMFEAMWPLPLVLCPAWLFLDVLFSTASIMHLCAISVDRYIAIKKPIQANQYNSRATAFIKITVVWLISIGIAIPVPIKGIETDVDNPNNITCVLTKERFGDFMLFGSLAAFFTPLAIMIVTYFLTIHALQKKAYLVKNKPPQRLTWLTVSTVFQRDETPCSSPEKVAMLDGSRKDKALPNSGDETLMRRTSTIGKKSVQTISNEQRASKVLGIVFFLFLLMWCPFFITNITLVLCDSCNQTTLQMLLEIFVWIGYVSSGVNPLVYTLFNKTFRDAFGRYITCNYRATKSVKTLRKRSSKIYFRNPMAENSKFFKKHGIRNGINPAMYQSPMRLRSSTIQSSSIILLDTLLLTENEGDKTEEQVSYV
# D(2) dopamine receptor (Homo sapiens), sequence (P14416 whole entry): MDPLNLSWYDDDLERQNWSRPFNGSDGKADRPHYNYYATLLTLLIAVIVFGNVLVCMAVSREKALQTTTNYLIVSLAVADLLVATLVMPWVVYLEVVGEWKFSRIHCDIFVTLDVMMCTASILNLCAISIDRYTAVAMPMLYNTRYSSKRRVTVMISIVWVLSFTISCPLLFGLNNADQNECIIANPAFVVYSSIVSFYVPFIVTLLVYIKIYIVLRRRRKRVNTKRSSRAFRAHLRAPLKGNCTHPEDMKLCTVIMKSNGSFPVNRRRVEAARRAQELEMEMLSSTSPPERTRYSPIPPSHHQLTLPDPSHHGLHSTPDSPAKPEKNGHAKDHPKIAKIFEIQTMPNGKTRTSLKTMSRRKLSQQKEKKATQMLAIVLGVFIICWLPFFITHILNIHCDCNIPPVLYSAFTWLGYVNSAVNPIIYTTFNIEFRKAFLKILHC
# T4 sequence (P28223 whole entry): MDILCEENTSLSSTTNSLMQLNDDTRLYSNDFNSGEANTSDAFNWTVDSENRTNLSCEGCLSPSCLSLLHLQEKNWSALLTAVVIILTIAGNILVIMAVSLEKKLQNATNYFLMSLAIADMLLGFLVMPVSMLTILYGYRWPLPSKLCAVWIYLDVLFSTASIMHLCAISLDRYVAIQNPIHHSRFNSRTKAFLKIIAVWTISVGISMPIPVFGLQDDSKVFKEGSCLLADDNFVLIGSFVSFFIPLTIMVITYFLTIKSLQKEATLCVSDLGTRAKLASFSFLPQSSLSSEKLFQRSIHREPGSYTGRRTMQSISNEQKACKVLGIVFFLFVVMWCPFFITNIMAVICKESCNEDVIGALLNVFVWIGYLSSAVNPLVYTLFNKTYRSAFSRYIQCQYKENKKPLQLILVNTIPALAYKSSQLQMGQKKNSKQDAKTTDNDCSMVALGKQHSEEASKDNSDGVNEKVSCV
# T1 sequence (Q99705 whole entry): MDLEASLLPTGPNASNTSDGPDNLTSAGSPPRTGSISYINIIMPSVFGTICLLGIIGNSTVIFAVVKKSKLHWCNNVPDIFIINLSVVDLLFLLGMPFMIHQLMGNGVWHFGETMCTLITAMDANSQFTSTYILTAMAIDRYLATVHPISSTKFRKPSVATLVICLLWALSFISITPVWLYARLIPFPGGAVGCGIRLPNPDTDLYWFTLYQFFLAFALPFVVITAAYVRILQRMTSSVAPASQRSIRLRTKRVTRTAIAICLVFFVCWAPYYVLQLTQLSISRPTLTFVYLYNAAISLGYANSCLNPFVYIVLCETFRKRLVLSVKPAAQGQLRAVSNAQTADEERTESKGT
smiles,measurement,setting,value
COc1ccccc1OCC(=O)Nc1ccc2nc(N3CCN(C)CC3)cc(C)c2c1,inhibition,[1],0%
Cc1cc(N2CCN(C)CC2)nc2ccc(NC(=O)CCc3ccc(Cl)cc3)cc12,IC50,[2],300 nM
Cc1cc(N2CCOCC2)nc2ccc(NC(=O)COc3ccc(C(F)(F)F)cc3)cc12,IC50,[2],91 nM
same,inhibition,[3],19%
same,inhibition,[4],27%
same,inhibition,[5],27%
same,inhibition,[6],5%
same,inhibition,[7],43%
same,Ratio,Homo sapiens,> 11
same,IC50,[8],124 nM
Cc1cc(N(C)CCN(C)C)nc2ccc(NC(=O)COc3ccc(C(F)(F)F)cc3)cc12,IC50,[2],22 nM
Cc1cc(N2CCCCC2)nc2ccc(NC(=O)COc3ccc(C(F)(F)F)cc3)cc12,IC50,[2],226 nM
Cc1cc(N2CCN(C)CC2)nc2ccc(NC(=O)COc3ccccc3Cl)cc12,IC50,[2],470 nM
Cc1cc(N2CCN(C)CC2)nc2ccc(NC(=O)COc3ccccc3)cc12,inhibition,[9],2%
Cc1cc(N2CCN(C)CC2)nc2ccc(NC(=O)CSCc3ccc(Cl)cc3)cc12,inhibition,[9],38%
Cc1ccc(OCC(=O)Nc2ccc3nc(N4CCN(C)CC4)cc(C)c3c2)cc1,IC50,[2],80 nM
Cc1cc(N2CCN(C)CC2)nc2ccc(NC(=O)COc3ccc(F)cc3)cc12,IC50,[2],1680 nM
Cc1cc(N(C)C)nc2ccc(NC(=O)COc3ccc(C(F)(F)F)cc3)cc12,IC50,[2],174 nM
Cc1cc(N2CCN(C)CC2)nc2ccc(NC(=O)COc3ccc(Cl)cc3)cc12,IC50,[2],55 nM
same,IC50,[10],2180 nM
same,IC50,[11],349 nM
same,IC50,[12],970 nM
same,inhibition,[13],84%
same,inhibition,[14],35%
Cc1cc(N2CCN(C)CC2)nc2ccc(NC(=O)COc3ccc(C(F)(F)F)cc3)cc12,IC50,[2],14 nM
same,IC50,[11],442 nM
same,inhibition,[4],39%
same,inhibition,[5],27%
same,inhibition,[15],85%
same,inhibition,[16],41%
same,Ratio,Homo sapiens,32
same,IC50,[8],63 nM
Cc1cc(N2CCN(C)CC2)nc2ccc(NC(=O)COc3ccc(OC(F)(F)F)cc3)cc12,IC50,[2],36 nM
COc1cccc(OCC(=O)Nc2ccc3nc(N4CCN(C)CC4)cc(C)c3c2)c1,inhibition,[9],9%
Cc1cc(N2CCN(C)CC2)nc2ccc(NC(=O)COCc3ccc(Cl)cc3)cc12,inhibition,[9],19%
COc1ccc(OCC(=O)Nc2ccc3nc(N4CCN(C)CC4)cc(C)c3c2)cc1,IC50,[2],152 nM
Cc1cc(N2CCCC2)nc2ccc(NC(=O)COc3ccc(C(F)(F)F)cc3)cc12,IC50,[2],15 nM
same,inhibition,[4],7%
same,inhibition,[5],11%
same,inhibition,[6],10%
same,inhibition,[7],7%
same,Ratio,Homo sapiens,> 200
same,IC50,[8],10 nM
Cc1cc(N2CCN(C)CC2)nc2ccc(NC(=O)COc3cccc(Cl)c3)cc12,inhibition,[1],19%
Cc1cc(N(C)Cc2ccccc2)nc2ccc(NC(=O)COc3ccc(C(F)(F)F)cc3)cc12,inhibition,[9],40%
Cc1cc(NC(C)C)nc2ccc(NC(=O)COc3ccc(C(F)(F)F)cc3)cc12,IC50,[2],11 nM
same,IC50,[11],400 nM
same,inhibition,[4],18%
same,inhibition,[5],18%
same,inhibition,[6],24%
same,inhibition,[7],2%
same,Ratio,Homo sapiens,36
Cc1ccccc1OCC(=O)Nc1ccc2nc(N3CCN(C)CC3)cc(C)c2c1,IC50,[2],1050 nM
Cc1cc(N2CCN(C)CC2)nc2ccc(NC(=O)COc3ccc(C#N)cc3)cc12,IC50,[2],370 nM
Cc1cc(NC2CCCC2)nc2ccc(NC(=O)COc3ccc(C(F)(F)F)cc3)cc12,IC50,[2],38 nM
